From US7399638B2, “Prediction method for lipidosis” (Takeda Pharmaceutical Company Limited, priority 2003, dated 2008)
Like-named read-outs stand apart in the source and are kept apart here. Marks after values point to notes of the source that are not given here. Values belong to the compound of their own block, whether it stands above or below them.

How the values were obtained:
[1] = test system: Crj: CD(SD)IGS rats; settings: rat, in vivo
Procedure: (§1) The following 10 kinds of commercially available drugs were examined as the test compounds for a potential of inducing PLsis by histopathological examination and peripheral blood lymphocyte testing.
(§2) The following experiments were performed using the prematurely autopsied animals.
(§3) The high-dose dosing suspension was diluted about 3 fold and 10 fold with dispersant/solvent to prepare intermediate- and low-dose dosing suspensions. […] [For LD50, the Summary Basis of Approval (FDA) for each drug was referenced to.]
(§4) The animals were examined for mortality, general conditions, body weight, food consumption and the like using PM4800 (Mettler) and EB3200D (Shimadzu Corporation).

[2] = test system: male cynomolgus monkeys; settings: cynomolgus monkey, in vivo
Procedure: Amiodarone and perhexiline were purchased from SIGMA Company.
Subsequently, the animals were allocated to four groups (5 animals in total) comprising 2 animals in the control group and 1 male in each treatment group, respectively.
The high-dose dosing suspension was diluted with the dispersant/solvent to prepare a low-dose dosing suspension.
After completion of the administration, livers, kidneys, hearts, spleens, lungs, mesenteric lymph nodes, eyeballs, testes and brains were collected from all animals, and examined for histopathological changes by conventional method of optical microscopy. Additionally, blood samples were collected in the pre-dosing period, on the first day of administration, and on days 2 and 6 of treatment period, blood smear specimens were prepared, and vacuolated lymphocyte ratios were determined.

[3] = test system: Crj: CD(SD)IGS rats; experiment: Urinary PAG/hippuric acid ratio by 1H NMR in rats
[4] = test system: Crj: CD(SD)IGS rats; settings: male, rat, in vivo, 3 days
Procedure: as §1, §2, §3, §4
Hematological examination was performed for parameters such as RBC count, hematocrit, hemoglobin concentration, mean corpuscular hemoglobin (MCH), mean corpuscular hemoglobin concentration (MCHC), mean corpuscular volume (MCV), platelet count, WBC count, reticulocyte count, differential WBC, and vacuolated lymphocyte ratio (for PLsis-inducing compounds only) using ADVIA120 (Bayer Medical Ltd.) and E-4000 (Sysmex Corporation).

[5] = rat 24-hour pooled urine, 30 mg/kg/day by gavage, 4 days, negative control drug, mean n = 2-4
[6] = rat 24-hour pooled urine, 100 mg/kg/day by gavage, 4 days, negative control drug, mean n = 2-4
[7] = rat urine, 25 mg/kg/day by gavage, 3 days, mean n = 3-4
[8] = rat urine, 75 mg/kg/day by gavage, 3 days, mean n = 3-4
[9] = rat urine, 250 mg/kg/day by gavage, 3 days, mean n = 3-4
[10] = rat urine, 30 mg/kg/day by gavage, 3 days, mean n = 3-4
[11] = rat urine, 100 mg/kg/day by gavage, 3 days, mean n = 3-4
[12] = rat urine, 300 mg/kg/day by gavage, 3 days, mean n = 3-4

SMILES: CCCCc1oc2ccccc2c1C(=O)c1cc(I)c(OCCN(CC)CC)c(I)c1 [Amiodarone]
Histopathological changes (PLsis): Liver ([1]; 100 mg/kg/day): − | Histopathological changes (PLsis): Lung ([1]; 100 mg/kg/day): − | Histopathological changes (PLsis): Lymph node ([1]; 100 mg/kg/day): − | Histopathological changes (PLsis): Others ([1]; 100 mg/kg/day): − | Histopathological changes (PLsis): Spleen ([1]; 100 mg/kg/day): − | Histopathological changes (PLsis): Liver ([1]; 300 mg/kg/day): − | Histopathological changes (PLsis): Lung ([1]; 300 mg/kg/day): + | Histopathological changes (PLsis): Lymph node ([1]; 300 mg/kg/day): + | Histopathological changes (PLsis): Others ([1]; 300 mg/kg/day): − | Histopathological changes (PLsis): Spleen ([1]; 300 mg/kg/day): − | Histopathological changes (PLsis): Liver ([1]; 1000 mg/kg/day): − | Histopathological changes (PLsis): Lung ([1]; 1000 mg/kg/day): + | Histopathological changes (PLsis): Lymph node ([1]; 1000 mg/kg/day): + | Histopathological changes (PLsis): Others ([1]; 1000 mg/kg/day): − | Histopathological changes (PLsis): Spleen ([1]; 1000 mg/kg/day): + | induction of PLsis/steatosis ([2]; 60 mg/kg): not observed | histopathological changes in any target organ ([2]; 300 mg/kg): observed

SMILES: COc1ccc([C@]2(C#N)CC[C@@H](C(=O)O)CC2)cc1OC1CCCC1 [Ariflo]
Histopathological changes (PLsis): Liver ([1]; 30 mg/kg/day): − | Histopathological changes (PLsis): Lung ([1]; 30 mg/kg/day): − | Histopathological changes (PLsis): Lymph node ([1]; 30 mg/kg/day): − | Histopathological changes (PLsis): Others ([1]; 30 mg/kg/day): − | Histopathological changes (PLsis): Spleen ([1]; 30 mg/kg/day): − | Histopathological changes (PLsis): Liver ([1]; 100 mg/kg/day): − | Histopathological changes (PLsis): Lung ([1]; 100 mg/kg/day): − | Histopathological changes (PLsis): Lymph node ([1]; 100 mg/kg/day): − | Histopathological changes (PLsis): Others ([1]; 100 mg/kg/day): − | Histopathological changes (PLsis): Spleen ([1]; 100 mg/kg/day): − | PAG + hippuric acid/creatinine [3, 5]: 1.34 | PAG/PAG + hippuric acid [3, 5]: 9.70% | PAG/creatinine (first term of PAG + hippuric acid) [3, 5]: 0.13 | PAG/hippuric acid [3, 5]: 12.16% | PAG + hippuric acid/creatinine [3, 6]: 1.14 | PAG/PAG + hippuric acid [3, 6]: 14.04% | PAG/creatinine (first term of PAG + hippuric acid) [3, 6]: 0.16 | PAG/hippuric acid [3, 6]: 13.91% | hippuric acid/creatinine (second term of PAG + hippuric acid) [3, 6]: 0.98

PAG + hippuric acid/creatinine [3, 7]: 1.34 | PAG/PAG + hippuric acid [3, 7]: 13.25% | PAG/creatinine (first term of PAG + hippuric acid) [3, 7]: 0.18 | PAG/hippuric acid [3, 7]: 15.42% | PAG + hippuric acid/creatinine [3, 8]: 1.23 | PAG/creatinine (first term of PAG + hippuric acid) [3, 8]: 0.24 | hippuric acid/creatinine (second term of PAG + hippuric acid) [3, 8]: 1.00 | PAG + hippuric acid/creatinine [3, 9]: 1.29 | PAG/creatinine (first term of PAG + hippuric acid) [3, 9]: 0.52 | hippuric acid/creatinine (second term of PAG + hippuric acid) [3, 9]: 0.76
SMILES: CCN(CC)CCCC(C)Nc1ccnc2cc(Cl)ccc12 (stereo not shown) [Chloroquine, chloroquine]

SMILES: CNCCC(Oc1ccc(C(F)(F)F)cc1)c1ccccc1 (stereo not shown) [Fluoxetine, fluoxetine]
Mean vacuolated lymphocyte ratio ([4]; 30 mg/kg/day): 7% | Mean vacuolated lymphocyte ratio ([4]; 100 mg/kg/day): 28% | Mean vacuolated lymphocyte ratio ([4]; 300 mg/kg/day): 31% | Histopathological changes (PLsis): Liver ([1]; 30 mg/kg/day): + | Histopathological changes (PLsis): Lung ([1]; 30 mg/kg/day): + | Histopathological changes (PLsis): Lymph node ([1]; 30 mg/kg/day): + | Histopathological changes (PLsis): Others ([1]; 30 mg/kg/day): Brain | Histopathological changes (PLsis): Spleen ([1]; 30 mg/kg/day): − | Histopathological changes (PLsis): Liver ([1]; 100 mg/kg/day): + | Histopathological changes (PLsis): Lung ([1]; 100 mg/kg/day): + | Histopathological changes (PLsis): Lymph node ([1]; 100 mg/kg/day): + | Histopathological changes (PLsis): Others ([1]; 100 mg/kg/day): Brain | Histopathological changes (PLsis): Spleen ([1]; 100 mg/kg/day): − | Histopathological changes (PLsis): Liver ([1]; 300 mg/kg/day): + | Histopathological changes (PLsis): Lung ([1]; 300 mg/kg/day): + | Histopathological changes (PLsis): Lymph node ([1]; 300 mg/kg/day): − | Histopathological changes (PLsis): Others ([1]; 300 mg/kg/day): − | Histopathological changes (PLsis): Spleen ([1]; 300 mg/kg/day): − | PAG + hippuric acid/creatinine [3, 10]: 1.13 | PAG/PAG + hippuric acid [3, 10]: 15.60* % | PAG/creatinine (first term of PAG + hippuric acid) [3, 10]: 0.17 | PAG/hippuric acid [3, 10]: 18.58* % | hippuric acid/creatinine (second term of PAG + hippuric acid) [3, 10]: 0.96 | PAG + hippuric acid/creatinine [3, 11]: 1.06 | PAG/PAG + hippuric acid [3, 11]: 25.90* % | PAG/creatinine (first term of PAG + hippuric acid) [3, 11]: 0.27 | PAG/hippuric acid [3, 11]: 36.86* % | hippuric acid/creatinine (second term of PAG + hippuric acid) [3, 11]: 0.79 | PAG + hippuric acid/creatinine [3, 12]: 0.67* | PAG/PAG + hippuric acid [3, 12]: 31.88* % | PAG/creatinine (first term of PAG + hippuric acid) [3, 12]: 0.20 | PAG/hippuric acid [3, 12]: 56.32* % | hippuric acid/creatinine (second term of PAG + hippuric acid) [3, 12]: 0.47
